Results taken from patent publication US12404345B2, “Humanized antibodies against iRHOM2” (SCIRHOM GMBH, priority 2021, dated 2025).
Values belong to the molecule of their own block, whether it stands above or below them.

What was measured:
[1] = tested on: LPS-induced release of endogenous TNFα from human PBMCs from healthy donors; assay: ELISA-based TNFα release assay, LPS-induced, PBMCs from healthy donors; assay type: cell-based; details: PBMC, Batimastat 10 μM, LPS 0.01 ng/ml, 2 hours
Experimental: In the following study, ELISA-based TNF& release assays were performed to analyze the inhibitory effects of the antibodies of the invention on LPS-induced release of endogenous TNF& from primary human material obtained from healthy donors using peripheral blood mononuclear cells (PBMCs).
In brief, on day 1, Nunc black MaxiSorp® 96-well plates (Thermo Fisher Scientific, USA) were coated overnight with 100 μl per well of mouse anti-human TNFα capture antibody (provided as part of the DuoSet ELISA kit) at 4 μg/ml TBS at 4° C. On day 2, the capture antibody solution was removed and MaxiSorp® plates were blocked with 300 μl per well of TBS, 1% BSA at room temperature for 3 hours. […] Using an infinite M1000 (Tecan Group, Switzerland) microplate reader, the fluorescence of each well was collected at an excitation wavelength of 435 nm and an emission wavelength of 555 nm.

[2] = target: T1, human iRhom2 variant hiR2-FL-K536A-T7 (Homo sapiens, UniProt Q6PJF5, K536A); assay: FACS epitope mapping on MEF-DKO-hiR2-FL-K536A-T7 cells; assay type: binding; details: antibody at 3 μg/ml, compared with MEF-DKO-hiR2-FL-WT-T7 cells
T1 construct: expressed in transfected cells; host or cells: immortalized iRhom1/2-/- DKO mouse embryonic fibroblasts, pMSCV retroviral infection
T1 sequence (Q6PJF5 1-856 K536A): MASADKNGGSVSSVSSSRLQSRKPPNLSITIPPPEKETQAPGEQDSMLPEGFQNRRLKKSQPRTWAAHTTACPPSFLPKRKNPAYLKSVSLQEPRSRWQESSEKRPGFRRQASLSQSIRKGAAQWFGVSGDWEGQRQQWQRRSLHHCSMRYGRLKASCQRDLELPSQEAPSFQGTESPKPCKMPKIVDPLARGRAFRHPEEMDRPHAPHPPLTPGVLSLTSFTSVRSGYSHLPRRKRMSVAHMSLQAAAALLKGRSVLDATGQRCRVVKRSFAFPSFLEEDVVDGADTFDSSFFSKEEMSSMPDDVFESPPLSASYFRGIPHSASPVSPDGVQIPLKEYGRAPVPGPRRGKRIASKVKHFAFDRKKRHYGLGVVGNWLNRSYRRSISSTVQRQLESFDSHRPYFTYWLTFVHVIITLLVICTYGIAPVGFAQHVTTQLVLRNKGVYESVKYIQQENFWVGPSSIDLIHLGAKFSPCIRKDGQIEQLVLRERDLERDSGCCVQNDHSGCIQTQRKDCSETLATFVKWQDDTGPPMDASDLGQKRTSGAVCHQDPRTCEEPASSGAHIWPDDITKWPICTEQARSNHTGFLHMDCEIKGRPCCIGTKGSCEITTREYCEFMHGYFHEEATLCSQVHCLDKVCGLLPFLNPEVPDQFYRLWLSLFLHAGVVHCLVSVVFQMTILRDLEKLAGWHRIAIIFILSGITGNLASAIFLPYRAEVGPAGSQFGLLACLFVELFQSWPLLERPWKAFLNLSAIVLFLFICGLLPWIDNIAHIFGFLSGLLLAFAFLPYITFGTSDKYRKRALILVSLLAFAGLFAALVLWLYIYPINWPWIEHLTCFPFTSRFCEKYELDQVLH
From the text: This example describes the generation of iRhom1/2−/− DKO MEF populations expressing the 137 single amino acid substitution or deletion variants as well as their characterization in terms of cell surface localization and functional activity as indicators of proper protein conformation. Subsequently, binding analyses of the humanized antibodies 16-B-03, 16-B-05, 16-B-07, 23-B-04, 42-B-02 and 42-B-04 of the invention on the entire panel of 137 engineered MEF populations expressing human iRhom2 variants with single amino acid substitutions or deletions are described.
In brief, on day 1, Phoenix-ECO cells (American Type Culture Collection, USA) were seeded on 6-well tissue culture plates (Greiner, Germany) in standard growth medium at 8×10^5 cells per well and kept overnight at 37° C., 5% CO2. On day 2, the medium was replaced by fresh medium supplemented with chloroquine (Sigma-Aldrich, USA) at a final concentration of 25 μM. […]

Molecule: CNC(=O)[C@H](Cc1ccccc1)NC(=O)[C@H](CC(C)C)[C@H](CSc1cccs1)C(=O)NO [Batimastat]
inhibition at 10 µM [1]: 98.9%

effect of substitution of lysine 536 of human iRhom2 by alanine on antibody binding (MEF-DKO-hiR2-FL-K536A-T7 cells) [2]: strongly impairs
B1: 42-B-02: humanized antibody binding human iRhom2; HCVD SEQ ID NO 33, LCVD SEQ ID NO 37 (antibody, V domains shown)
VH: QVTLRESGPALVKPTQTLTLTCTFSGFSLSTFGRGVGWIRQPPGKALEWLAHIWWDDEKYYNSALKSRLTISKDTSKNQVVLTITNMDPVDTATYYCARIQNYGSNYWYFDVWGQGTLVTVSS
VL: AIQLTQSPSSLSASVGDRVTITCRASSRISYMFWYQQKPGKAPKVLIYDTSNLASGVPSRFSGSGSGTDYTLTISSLQPEDFATYYCQQWNSYPLTFGQGTKLEIK
modifications: antibody sequences
